Source: patent publication US9770026B2, “Substituted pyrimidine compound and uses thereof” (Shenyang Sinochem Agrochemicals R&D Co., Ltd., priority 2012, dated 2017)

Assays:
[1] = test system: Green peach aphids (Myzus Persicae Sulzer); assay: bioactivity test against green peach aphid, airbrush foliar spray; type: in vivo; details: for Insecticidal activity against peach aphid (%): contrastive test
Method: (§1) Compounds were dissolved in mixed solvent (acetone:methanol=1:1), and diluted to required concentration with water containing 0.1% of tween 80.
(§2) Diamond back moth, armyworm, peach aphid and carmine spider mite were used as targets and the method of spraying by airbrush was used for determination of insecticidal biassays.
Method: Filter papers were put in culture dishes (Diameter=6 cm), and water was dripped on filter papers for preserving moisture. Green peach aphids (Myzus Persicae Sulzer) were maintained on cabbage. Leaves (Diameter=3 cm) of approximately 15-30 aphids were put in the culture dishes. Bioactivity tests were used the method of Airbrush Foliar Spray, pressure=10 psi (0.7 kg/cm2), spray volume=0.5 mL. The studies were conducted at […] 25±1 C in incubator cabinets with 60±5% RH. Survey the survival aphids after 48 hrs and calculate the death rates.

[2] = test system: wheat powdery mildew; assay: protectant activity in vivo against wheat powdery mildew
[3] = test system: corn rust; assay: protectant activity in vivo against corn rust
[4] = test system: cucumber downy mildew; assay: protectant activity in vivo against cucumber downy mildew; details: for control effect against cucumber downy mildew (%): protectant activity
[5] = test system: carmine spider mite; assay: bioactivity test against carmine spider mite, airbrush spray; type: in vivo; details: 600 ppm, mortality after 72 hrs
Method: as §1, §2
The method: Broadbean shoots with two true leaves in pot were taken, the healthy adults of carmine spider mite were inoculated to the leaves. The adults were counted and then sprayed with airbrush at the pressure of 0.7 kg/cm^2 and at dose of 0.5 ml. 3 replicates were set for each treatment. And then they were maintained in standard observation room. Scores were conducted and mortalities were calculated after 72 hrs.

[6] = 10 ppm, death rate after 48 hrs
[7] = 100 ppm, death rate after 48 hrs
[8] = 600 ppm, death rate after 48 hrs

| Compound | control (test results against green peach aphid) [1, 7] | control (test results against green peach aphid) [1, 8] | protectant activity against wheat powdery mildew in vivo ([2]; 400 ppm) | protectant activity against corn rust in vivo ([3]; 400 ppm) | control effect against cucumber downy mildew (%) ([4]; 25 mg/L) | control effect against cucumber downy mildew (%) ([4]; 50 mg/L) | control effect against cucumber downy mildew (%) ([4]; 100 mg/L) | control effect against cucumber downy mildew (%) ([4]; 400 mg/L) | protectant activity against cucumber downy mildew in vivo ([4]; 25 ppm) | protectant activity against cucumber downy mildew in vivo ([4]; 50 ppm) | protectant activity against cucumber downy mildew in vivo ([4]; 100 ppm) | protectant activity against cucumber downy mildew in vivo ([4]; 400 ppm) | further results |
| --- | --- | --- | --- | --- | --- | --- | --- | --- | --- | --- | --- | --- | --- |
| CCc1ncnc(NCCc2ccc(Oc3ccc(C(F)(F)F)cc3Cl)nc2)c1Cl [III-301] | 100% | 100% | 100% | 100% | 100% | 100% | 100% | 100% | 100% | 100% | 100% | 100% | Insecticidal activity against peach aphid (%) ([1]; 10 mg/L): 100%; Insecticidal activity against peach aphid (%) ([1]; 100 mg/L): 100%; Insecticidal activity against peach aphid (%) ([1]; 600 mg/L): 100%; control (test results against green peach aphid) [1, 6]: 100%; protectant activity against wheat powdery mildew in vivo ([2]; 100 ppm): 100%; protectant activity against corn rust in vivo ([3]; 100 ppm): 100%; control effect against cucumber downy mildew (%) ([4]; 6.25 mg/L): 100%; control effect against cucumber downy mildew (%) ([4]; 12.5 mg/L): 100%; protectant activity against cucumber downy mildew in vivo ([4]; 6.25 ppm): 100%; protectant activity against cucumber downy mildew in vivo ([4]; 12.5 ppm): 100% |
| CCc1ncnc(NCCc2ccc(Oc3cccc(Cl)c3)nc2)c1Cl [III-186] | 100% | 100% | 100% | 100% | – | – | – | – | – | – | – | – | – |
| CCOC(=O)c1ccc(Oc2ccc(CCNc3ncnc(CC)c3Cl)cc2)nc1 [Compound I-267] | 100% | 100% | 100% | 100% | – | – | – | – | – | – | – | – | control (test results against green peach aphid) [1, 6]: 100%; protectant activity against wheat powdery mildew in vivo ([2]; 100 ppm): 100%; control against carmine spider mite [5]: 100% |
| FC(F)(F)c1ccc(Oc2ccc(CNc3ncnc4ccccc34)cc2)nc1 [CK31, reference compound] | – | – | – | – | – | – | – | – | – | – | – | – | pest or weed control at 6.25 µg/mL ([2]; Triticum aestivum, 168 h, read-out: control effect against wheat powdery mildew (%), 6.25 mg/L, protectant activity): 0%; pest or weed control at 25 µg/mL ([2]; Triticum aestivum, 168 h, read-out: control effect against wheat powdery mildew (%), 25 mg/L, protectant activity): 0%; pest or weed control at 100 µg/mL ([2]; Triticum aestivum, 168 h, read-out: control effect against wheat powdery mildew (%), 100 mg/L, protectant activity): 0%; pest or weed control at 400 µg/mL ([2]; Triticum aestivum, 168 h, read-out: control effect against wheat powdery mildew (%), 400 mg/L, protectant activity): 0%; pest or weed control at 6.25 µg/mL ([3]; Zea mays, 168 h, read-out: control effect against corn rust (%), 6.25 mg/L, protectant activity): 0%; pest or weed control at 25 µg/mL ([3]; Zea mays, 168 h, read-out: control effect against corn rust (%), 25 mg/L, protectant activity): 0%; pest or weed control at 100 µg/mL ([3]; Zea mays, 168 h, read-out: control effect against corn rust (%), 100 mg/L, protectant activity): 0%; pest or weed control at 400 µg/mL ([3]; Zea mays, 168 h, read-out: control effect against corn rust (%), 400 mg/L, protectant activity): 0% |
| COc1ccc(Oc2ccc(CCNc3nc(C)nc(Cl)c3Cl)cn2)cc1 [III-2539] | – | 100% | – | 100% | 100% | 100% | 100% | 100% | 100% | 100% | 100% | 100% | control against carmine spider mite [5]: 100%; control effect against cucumber downy mildew (%) ([4]; 12.5 mg/L): 85% |
| CCOC(=O)c1ccc(Oc2ccc(CCNc3ncnc(C)c3Cl)cc2)nc1 [Compound I-35] | 100% | 100% | 100% | 100% | – | – | – | – | – | – | – | 100% | control (test results against green peach aphid) [1, 6]: 100%; protectant activity against corn rust in vivo ([3]; 100 ppm): 100% |
| CCc1ncnc(NCCc2ccc(Oc3cc(Cl)ccc3Cl)nc2)c1Cl [III-263] | – | 100% | 100% | – | 100% | 100% | 100% | 100% | 100% | 100% | 100% | 100% | control effect against cucumber downy mildew (%) ([4]; 6.25 mg/L): 70%; control effect against cucumber downy mildew (%) ([4]; 12.5 mg/L): 98% |
| CCc1nc(C)nc(NCCc2ccc(Oc3nc(Cl)c(Cl)cc3Cl)cc2)c1Cl [Compound I-6790] | – | – | – | – | – | – | – | – | – | – | – | – | pest or weed control at 600 ppm ([1]; Myzus persicae, foliar, 48 h, 600 ppm, death rate after 48 hrs): 100%; pest or weed control at 400 ppm ([2]; Triticum aestivum, 168 h, read-out: protectant activity against wheat powdery mildew in vivo, 400 ppm): 100%; pest or weed control at 400 ppm ([3]; Zea mays, 168 h, read-out: protectant activity against corn rust in vivo, 400 ppm): 100%; pest or weed control at 25 ppm ([4]; Cucumis sativus, 168 h, read-out: protectant activity against cucumber downy mildew in vivo, 25 ppm): 80 to 99%; pest or weed control at 50 ppm ([4]; Cucumis sativus, 168 h, read-out: protectant activity against cucumber downy mildew in vivo, 50 ppm): 80 to 99%; pest or weed control at 100 ppm ([4]; Cucumis sativus, 168 h, read-out: protectant activity against cucumber downy mildew in vivo, 100 ppm): 80 to 99%; pest or weed control at 400 ppm ([4]; Cucumis sativus, 168 h, read-out: protectant activity against cucumber downy mildew in vivo, 400 ppm): 100% |
| CCc1ncnc(NCCc2ccc(Oc3ncc(C(F)(F)F)cc3Cl)cc2)c1Cl [Compound I-602] | 100% | 100% | 100% | – | – | – | – | – | – | – | 100% | 100% | protectant activity against wheat powdery mildew in vivo ([2]; 100 ppm): 100%; control against carmine spider mite [5]: 100% |
| CCc1ncnc(NCCc2ccc(Oc3ccc(Cl)cc3Cl)nc2)c1Cl [III-262] | 100% | 100% | 100% | 100% | 100% | 100% | 100% | 100% | 100% | 100% | 100% | 100% | control effect against corn rust (%) ([3]; 0.4 mg/L, protectant activity): 60%; control effect against corn rust (%) ([3]; 1.6 mg/L, protectant activity): 90%; control effect against corn rust (%) ([3]; 6.25 mg/L, protectant activity): 90%; control effect against corn rust (%) ([3]; 25 mg/L, protectant activity): 100%; control effect against corn rust (%) ([3]; 100 mg/L, protectant activity): 100%; control effect against corn rust (%) ([3]; 400 mg/L, protectant activity): 100%; protectant activity against corn rust in vivo ([3]; 25 ppm): 100%; protectant activity against corn rust in vivo ([3]; 100 ppm): 100% |
| Cc1ncnc(NCCc2ccc(Oc3ccc(Cl)cc3Cl)nc2)c1Cl [III-82] | – | 100% | 100% | 100% | 100% | 100% | 100% | 100% | 100% | 100% | 100% | 100% | control effect against cucumber downy mildew (%) ([4]; 12.5 mg/L): 98% |
| Cc1ncnc(NCCc2ccc(Oc3cc(Cl)cc(Cl)c3)cc2)c1Cl [II-25] | – | 100% | 100% | – | – | – | – | – | – | – | – | 100% | – |
| Cc1ncnc(NCCc2ccc(Oc3ccccc3Cl)nc2)c1Cl [III-5] | – | 100% | 100% | – | 100% | 100% | 100% | 100% | 100% | 100% | 100% | 100% | control against carmine spider mite [5]: 100% |
| Cc1ncnc(NCCc2ccc(Oc3cc(Cl)ccc3Cl)nc2)c1Cl [III-83] | – | 100% | 100% | 100% | – | – | – | – | – | – | – | – | – |
| FC(F)c1ncnc(NCCc2ccc(Oc3ncc(Cl)cc3Cl)cc2)c1Cl [Compound I-2555] | 100% | 100% | 100% | 100% | – | – | – | – | – | – | – | 100% | protectant activity against wheat powdery mildew in vivo ([2]; 25 ppm): 100%; protectant activity against wheat powdery mildew in vivo ([2]; 100 ppm): 100% |
